Measured values from patent US20070155772A1, “Use of genetic polymorphisms that associate with efficacy of treatment of inflammatory disease” (priority 2003, published 2007).
Where “and” joins values, the source holds several entries; their conditions need not be identical. Identical values can stand only once.

What was measured:
[1] = system: pediatric subjects with moderate atopic dermatitis; assay: Phase IIIb trial, efficacy by Investigator global assessment (IGA) score on day 43; format: in vivo, human; details: for Efficacy (IGA): number of patients that experienced efficacy / Efficacy (IGA): percent of patients that experienced efficacy: IGA score of 0 or 1 on day 43
Text: The genetic locus was identified in a Phase IIIb trial that was designed as a head to head comparison of pimecrolimus cream 1% and tacrolimus ointment 0.03%. The six-week investigator-blinded trial of pediatric subjects with moderate atopic dermatitis explored the incidence of local application site reactions induced by the two topical macrolactams, as well as their efficacy, safety and cosmetic acceptability. Blood samples for pharmacogenetic analysis were collected from consenting participants in the clinical trial, to define a genetic basis for response to either treatment. Statistical analysis. Investigator global assessment (IGA) scores were used as the primary marker of efficacy in the pharmacogenetic studies. IGA scores at the end of the Investigator Blinded phase of the trial (Day 43) were used as the main time-point for comparison. Last observation carried forward imputations were only required for one subject at day 43. In this case, there was no IGA score available after Day 29, and the score on this day was used in place of a day 43 IGA score. IGA scores were re-coded, as was done to assess efficacy in the trial itself. An IGA score of 0 or 1 was considered successful treatment and IGA scores of 2-5 were counted as treatment failure. The severity of pruritus was also used as a marker of efficacy. Pruritus scores were dichotomized into absence (score=0) or presence (score=1, 2 or 3) of pruritus. The fisher's exact model was employed to examine the genotype effect on each efficacy variable. All statistical analyses were done using SAS version 8.2 software.

[2] = system: pediatric subjects with moderate atopic dermatitis; assay: Phase IIIb trial, severity of pruritus score on day 43; format: in vivo, human
Text: The genetic locus was identified in a Phase IIIb trial that was designed as a head to head comparison of pimecrolimus cream 1% and tacrolimus ointment 0.03%. The six-week investigator-blinded trial of pediatric subjects with moderate atopic dermatitis explored the incidence of local application site reactions induced by the two topical macrolactams, as well as their efficacy, safety and cosmetic acceptability. Blood samples for pharmacogenetic analysis were collected from consenting participants in the clinical trial, to define a genetic basis for response to either treatment.
Statistical analysis. Investigator global assessment (IGA) scores were used as the primary marker of efficacy in the pharmacogenetic studies. IGA scores at the end of the Investigator Blinded phase of the trial (Day 43) were used as the main time-point for comparison. Last observation carried forward imputations were only required for one subject at day 43. In this case, there was no IGA score available after Day 29, and the score on this day was used in place of a day 43 IGA score. IGA scores were re-coded, as was done to assess efficacy in the trial itself. An IGA score of 0 or 1 was considered successful treatment and IGA scores of 2-5 were counted as treatment failure. The severity of pruritus was also used as a marker of efficacy. Pruritus scores were dichotomized into absence (score=0) or presence (score=1, 2 or 3) of pruritus. The fisher's exact model was employed to examine the genotype effect on each efficacy variable. All statistical analyses were done using SAS version 8.2 software.
Association between polymorphic markers and relief from pruritus. A secondary efficacy variable used in the trial was pruritus. An analysis was done to see if ASN60THR LTA and (−1031) TNF associated with this efficacy variable (assessed on day 43).

[3] = (−1031) TNF genotype CC, day 43
[4] = (−1031) TNF genotype CT, day 43
[5] = (−1031) TNF genotype TT, day 43
[6] = ASN60THR LTA genotype AA, day 43
[7] = ASN60THR LTA genotype AC, day 43
[8] = ASN60THR LTA genotype CC, day 43
[9] = all (−1031) TNF genotypes, day 43
[10] = all ASN60THR LTA genotypes, day 43
[11] = patients with a C allele (CC or CT) at (−1031) TNF, day 43
[12] = VAL63ILE CCR2 (TWT# 47987) genotype AG, day 43
[13] = VAL63ILE CCR2 (TWT# 47987) genotype GG, day 43
[14] = all VAL63ILE CCR2 genotypes, day 43

CC[C@@H]1/C=C(\C)C[C@H](C)C[C@H](OC)[C@H]2O[C@@](O)(C(=O)C(=O)N3CCCC[C@H]3C(=O)O[C@H](/C(C)=C/[C@@H]3CC[C@H](Cl)[C@H](OC)C3)[C@H](C)[C@@H](O)CC1=O)[C@H](C)C[C@@H]2OC [pimecrolimus]
No success (IGA ≧ 2), number of individuals [1, 3]: 1
No success (IGA ≧ 2), percent [1, 3]: 100%
Success (IGA = 0 or 1), number of individuals [1, 3]: 0 (0%)
Success (IGA = 0 or 1), percent [1, 3]: 0 (0%)
No success (IGA ≧ 2), number of individuals [1, 4]: 9
No success (IGA ≧ 2), percent [1, 4]: 100%
Success (IGA = 0 or 1), number of individuals [1, 4]: 0
Success (IGA = 0 or 1), percent [1, 4]: 100%
No success (IGA ≧ 2), number of individuals [1, 5]: 4
No success (IGA ≧ 2), percent [1, 5]: 33%
Success (IGA = 0 or 1), number of individuals [1, 5]: 8
Success (IGA = 0 or 1), percent [1, 5]: 67%
No success (IGA ≧ 2), number of individuals [1, 6]: 0 (0%)
No success (IGA ≧ 2), percent [1, 6]: 0 (0%)
Success (IGA = 0 or 1), number of individuals [1, 6]: 3/3 and 3
Success (IGA = 0 or 1), percent [1, 6]: 100%
No success (IGA ≧ 2), number of individuals [1, 7]: 6
No success (IGA ≧ 2), percent [1, 7]: 60%
Success (IGA = 0 or 1), number of individuals [1, 7]: 4/10 and 4
Success (IGA = 0 or 1), percent [1, 7]: 40%
No success (IGA ≧ 2), number of individuals [1, 8]: 8
No success (IGA ≧ 2), percent [1, 8]: 89%
Success (IGA = 0 or 1), number of individuals [1, 8]: 1
Success (IGA = 0 or 1), percent [1, 8]: 11%
No success (IGA ≧ 2), number of individuals ([1]; LTB (TWT#128095) genotype AC): 0
No success (IGA ≧ 2), percent ([1]; LTB (TWT#128095) genotype AC): 50%
Success (IGA = 0 or 1), number of individuals ([1]; LTB (TWT#128095) genotype AC): 1
Success (IGA = 0 or 1), percent ([1]; LTB (TWT#128095) genotype AC): 100%
No success (IGA ≧ 2), number of individuals ([1]; LTB (TWT#128095) genotype CC): 12
No success (IGA ≧ 2), percent ([1]; LTB (TWT#128095) genotype CC): 63%
Success (IGA = 0 or 1), number of individuals ([1]; LTB (TWT#128095) genotype CC): 7
Success (IGA = 0 or 1), percent ([1]; LTB (TWT#128095) genotype CC): 37%
Efficacy (IGA): number of patients that experienced efficacy ([1]; Pharmacogenomics samples): 8
Efficacy (IGA): percent of patients that experienced efficacy ([1]; Pharmacogenomics samples): 36%
Efficacy (IGA): number of patients that experienced efficacy ([1]; Trial subjects): 22
Efficacy (IGA): percent of patients that experienced efficacy ([1]; Trial subjects): 32%
No success (IGA ≧ 2), number of individuals, Total [1, 9]: 14
Success (IGA = 0 or 1), number of individuals, Total [1, 9]: 8
No success (IGA ≧ 2), number of individuals, Total [1, 10]: 13
Success (IGA = 0 or 1), number of individuals, Total [1, 10]: 7
No success (IGA ≧ 2), number of individuals, Total ([1]; all LTB (TWT#128095) genotypes): 12
Success (IGA = 0 or 1), number of individuals, Total ([1]; all LTB (TWT#128095) genotypes): 8
subjects that responded to treatment (IGA) [1, 11]: None and No patient
success / response rate (IGA) [1, 11]: 0%
Pruritus (day 43) score 0, percent of subjects ([2]; Pharmacogenomics samples): 10%
Pruritus (day 43) score 1, number of subjects ([2]; Pharmacogenomics samples): 14
Pruritus (day 43) score 1, percent of subjects ([2]; Pharmacogenomics samples): 67%
Pruritus (day 43) score 2, number of subjects ([2]; Pharmacogenomics samples): 3
Pruritus (day 43) score 2, percent of subjects ([2]; Pharmacogenomics samples): 14%
Pruritus (day 43) score 3, number of subjects ([2]; Pharmacogenomics samples): 2
Pruritus (day 43) score 3, percent of subjects ([2]; Pharmacogenomics samples): 10%
Pruritus (day 43) score 0, number of subjects ([2]; Trial subjects): 9
Pruritus (day 43) score 0, percent of subjects ([2]; Trial subjects): 13%
Pruritus (day 43) score 1, number of subjects ([2]; Trial subjects): 35
Pruritus (day 43) score 1, percent of subjects ([2]; Trial subjects): 49%
Pruritus (day 43) score 2, number of subjects ([2]; Trial subjects): 15
Pruritus (day 43) score 2, percent of subjects ([2]; Trial subjects): 21%
Pruritus (day 43) score 3, number of subjects ([2]; Trial subjects): 10
Pruritus (day 43) score 3, percent of subjects ([2]; Trial subjects): 14%

C=CC[C@@H]1/C=C(\C)C[C@H](C)C[C@H](OC)[C@H]2O[C@@](O)(C(=O)C(=O)N3CCCC[C@H]3C(=O)O[C@H](/C(C)=C/[C@@H]3CC[C@@H](O)[C@H](OC)C3)[C@H](C)[C@@H](O)CC1=O)[C@H](C)C[C@@H]2OC [tacrolimus]
No success (IGA ≧ 2), number of individuals [1, 3]: 1
No success (IGA ≧ 2), percent [1, 3]: 50%
Success (IGA = 0 or 1), number of individuals [1, 3]: 1
Success (IGA = 0 or 1), percent [1, 3]: 50%
No success (IGA ≧ 2), number of individuals [1, 4]: 2
No success (IGA ≧ 2), percent [1, 4]: 40%
Success (IGA = 0 or 1), number of individuals [1, 4]: 3
Success (IGA = 0 or 1), percent [1, 4]: 60%
No success (IGA ≧ 2), number of individuals [1, 5]: 8
No success (IGA ≧ 2), percent [1, 5]: 47%
Success (IGA = 0 or 1), number of individuals [1, 5]: 9
Success (IGA = 0 or 1), percent [1, 5]: 53%
No success (IGA ≧ 2), number of individuals [1, 6]: 3
No success (IGA ≧ 2), percent [1, 6]: 43%
Success (IGA = 0 or 1), number of individuals [1, 6]: 4
Success (IGA = 0 or 1), percent [1, 6]: 57%
No success (IGA ≧ 2), number of individuals [1, 7]: 4
No success (IGA ≧ 2), percent [1, 7]: 40%
Success (IGA = 0 or 1), number of individuals [1, 7]: 6
Success (IGA = 0 or 1), percent [1, 7]: 60%
No success (IGA ≧ 2), number of individuals [1, 8]: 4
No success (IGA ≧ 2), percent [1, 8]: 57%
Success (IGA = 0 or 1), number of individuals [1, 8]: 3
Success (IGA = 0 or 1), percent [1, 8]: 42%
No success (IGA ≧ 2), number of individuals ([1]; LTB (TWT#128095) genotype AC): 3
No success (IGA ≧ 2), percent ([1]; LTB (TWT#128095) genotype AC): 60%
Success (IGA = 0 or 1), number of individuals ([1]; LTB (TWT#128095) genotype AC): 2
Success (IGA = 0 or 1), percent ([1]; LTB (TWT#128095) genotype AC): 40%
No success (IGA ≧ 2), number of individuals ([1]; LTB (TWT#128095) genotype CC): 8
No success (IGA ≧ 2), percent ([1]; LTB (TWT#128095) genotype CC): 44%
Success (IGA = 0 or 1), number of individuals ([1]; LTB (TWT#128095) genotype CC): 10
Success (IGA = 0 or 1), percent ([1]; LTB (TWT#128095) genotype CC): 56%
Efficacy (IGA): number of patients that experienced efficacy ([1]; Pharmacogenomics samples): 13
Efficacy (IGA): percent of patients that experienced efficacy ([1]; Pharmacogenomics samples): 52%
Efficacy (IGA): number of patients that experienced efficacy ([1]; Trial subjects): 27
Efficacy (IGA): percent of patients that experienced efficacy ([1]; Trial subjects): 40%
No success (IGA ≧ 2), number of individuals [1, 12]: 2
No success (IGA ≧ 2), percent [1, 12]: 20%
Success (IGA = 0 or 1), number of individuals [1, 12]: 8/10 and 8
Success (IGA = 0 or 1), percent [1, 12]: 80%
No success (IGA ≧ 2), number of individuals [1, 13]: 9
No success (IGA ≧ 2), percent [1, 13]: 69%
Success (IGA = 0 or 1), number of individuals [1, 13]: 4/13 and 4
Success (IGA = 0 or 1), percent [1, 13]: 31%
No success (IGA ≧ 2), number of individuals, Total [1, 9]: 11
Success (IGA = 0 or 1), number of individuals, Total [1, 9]: 13
No success (IGA ≧ 2), number of individuals, Total [1, 10]: 11
Success (IGA = 0 or 1), number of individuals, Total [1, 10]: 13
No success (IGA ≧ 2), number of individuals, Total ([1]; all LTB (TWT#128095) genotypes): 11
Success (IGA = 0 or 1), number of individuals, Total ([1]; all LTB (TWT#128095) genotypes): 12
No success (IGA ≧ 2), number of individuals, Total [1, 14]: 11
Success (IGA = 0 or 1), number of individuals, Total [1, 14]: 12
Pruritus (day 43) score 0, number of subjects ([2]; Pharmacogenomics samples): 5
Pruritus (day 43) score 0, percent of subjects ([2]; Pharmacogenomics samples): 20%
Pruritus (day 43) score 1, number of subjects ([2]; Pharmacogenomics samples): 10
Pruritus (day 43) score 1, percent of subjects ([2]; Pharmacogenomics samples): 40%
Pruritus (day 43) score 2, number of subjects ([2]; Pharmacogenomics samples): 7
Pruritus (day 43) score 2, percent of subjects ([2]; Pharmacogenomics samples): 28%
Pruritus (day 43) score 3, number of subjects ([2]; Pharmacogenomics samples): 3
Pruritus (day 43) score 3, percent of subjects ([2]; Pharmacogenomics samples): 12%
Pruritus (day 43) score 0, number of subjects ([2]; Trial subjects): 11
Pruritus (day 43) score 0, percent of subjects ([2]; Trial subjects): 16%
Pruritus (day 43) score 1, number of subjects ([2]; Trial subjects): 35
Pruritus (day 43) score 1, percent of subjects ([2]; Trial subjects): 50%
Pruritus (day 43) score 2, number of subjects ([2]; Trial subjects): 19
Pruritus (day 43) score 2, percent of subjects ([2]; Trial subjects): 27%
Pruritus (day 43) score 3, number of subjects ([2]; Trial subjects): 3
Pruritus (day 43) score 3, percent of subjects ([2]; Trial subjects): 4%
